# Starred links: 1 amine or outer side, 2 acyl side, 3 side chain; linkers in the order of their positions; H or OH if unused. Positions of bridges follow the written chain, without caps; N, C: chain ends. Residues, ends and D or L forms follow the SMILES beside them. X4 = C#CCON=C(C)C([*:1])[*:2]
# B1: 1,3-dichloroacetone-crosslinked cyclic peptide of IgG-BP-LongGS (peptide)
# peptide: GSGGSGPDCAYHRGELVWCTFH
# modifications: the thiol groups of the two Cys residues crosslinked with 1,3-dichloroacetone in place of the disulfide bond
# B2: alkyne functional group-introduced, crosslinked and cyclized peptide (1,1-dichloroacetone-crosslinked IgG-BP-LongGS reacted with O-2-Propynylhydroxylamine) (peptide)
# peptide: GSGGSGPDCAYHRGELVWCTFH
# modifications: not fully specified; the two Cys thiols crosslinked with 1,1-dichloroacetone; the crosslink reacted with O-2-Propynylhydroxylamine hydrochloride to introduce an alkyne group
# B3: 2,2-dichloroacetophenone-crosslinked cyclic peptide of IgG-BP-LongGS (peptide)
# peptide: GSGGSGPDCAYHRGELVWCTFH
# modifications: the thiol groups of the two Cys residues crosslinked with 2,2-dichloroacetophenone in place of the disulfide bond; Fmoc removed
# Tests used:
# α-chymotrypsin = molecular target: T1, α-chymotrypsin (Bos taurus, UniProt P00766); assay: Resistance to α-chymotrypsin digestion followed by reverse-phase HPLC; type: in vitro ADME, bovine; details: for change of HPLC peak after addition of α-chymotrypsin: α-chymotrypsin 1/10 weight ratio, 37° C.; for resistance to protease (FIG. 10): α-chymotrypsin
# T1 construct: purchased MP Biomedicals; host or cells: bovine pancreas
# Procedure: For evaluation of stability of a peptide by crosslinking reaction, resistivity of α-chymotrypsin (derived from bovine pancreas, manufactured by MP Biomedicals) to protease decomposition was evaluated with oxytocin crosslinked by 2,2-dichloroacetophenone. Crosslinking of oxytocin by 2,2-dichloroacetophenone was performed in the same manner with replacement of 1.1-dichloroacetone in Example 11 by 2,2-dichloroacetophenone, and an objective product was taken by reverse-phase HPLC. Specifically, 10 mg (10 μmol) of oxytocin acetate was dissolved in 3 mL of a 0.1 M HEPES hydrochloric acid buffer (pH 8.0), the solution was mixed with 2 mL of a 0.1 M HEPES hydrochloric acid buffer (pH 8.0) containing 57.4 mg (200 μmol) of TCEP-HCl, and the mixture was stirred for 1 hour. Next, 8.3 mg (44 μmol) of 2,2-dichloroacetophenone dissolved in 0.44 mL of acetonitrile was added and mixed, and the mixture was stirred at room temperature for 1 hour. The resulting sample was applied to an InertSustain C18 column (5 μm, 14×250 mm, manufactured by GL Sciences Inc.) (flow rate 5 mL/min) connected to LC-Forte (manufactured by YMC). The elution was performed at a linear gradient from 4% to 70% (containing 0.1% formic acid). An objective product was taken, and freeze-dried after removal of acetonitrile at a negative pressure.
# Evaluation was made with oxytocin-OX and an oxytocin SH reduced form (oxytocin-RD) shown by the following formula A3 used as comparison subjects. In other words, an oxytocin solution obtained by dissolution in a 0.1 M phosphate buffer (pH 7.0) at 0.5 mg/mL was adopted as oxytocin-OX, and a substance obtained after a lapse of 30 minutes from addition of an oxytocin solution obtained by dissolution in a 0.1 M phosphate buffer (pH 7.0) containing 0.5 mg/mL TCEP, at 0.5 mg/mL, was adopted as oxytocin-RD. To 200 μL of each of these solutions was 10 μL ( 1/10 on weight ratio to oxytocin) of 1 mg/mL α-chymotrypsin, and the resultant was subjected to incubation at 37° C. and analysis by reverse-phase HPLC. In the case of blank, a phosphate buffer was added instead of α-chymotrypsin.
# A substance obtained after a lapse of 30 minutes from dissolution of 0.5 mg/mL oxytocin-DP purified, in a 0.1 M phosphate buffer (pH 7.0) containing 0.5 mg/mL TCEP, was adopted as a sample, and similarly α-chymotrypsin was added and analysis by reverse-phase HPLC was made.
# human serum-derived IgG = assay: Dynamic binding capacity (DBC) measurement and alkali resistance evaluation of peptide-immobilized column; details: for Dynamic binding capacity: 10% breakthrough
# Procedure: Five mL of 1 mM hydrochloric acid was sent to an NHS-activated prepacked column having a volume of 1 mL, and an isopropanol solution in the column was removed. Next, a 10.0 mg/mL peptide solution (dissolved in 100 μL of DMSO) was diluted with a coupling solution (20 mM carbonate buffer, 50 mM sodium chloride, pH 8.3) by 10-fold, 1 mL of the dilution liquid was sent, and immobilization was performed at room temperature for 4 hours. Thereafter, unreacted NHS was blocked by 5 mL of 1 M Tris (pH 8.0) at room temperature for 1 hour. Thereafter, washing with 5 mL of an aqueous 0.1 N NaOH solution was made. Finally, 10 mL of a PBS solution (20 mM phosphate buffer, 150 mM sodium chloride, pH 7.4) was sent, and used in chromatography evaluation.
# A column where the amount of immobilization of a peptide was 1 mg was produced by the same method as described above. The column produced was equilibrated with PBS, and 1 mg/mL human serum-derived IgG (manufactured by Sigma-Aldrich Co. LLC) dissolved in PBS was sent at a flow rate of 1 mL/min (retention time 1 min). DBC was indicated as one determined from the amount of a protein added at the time of point where 10% of the absorbance at 280 nm of the sample added was leaked.
# Next, 5 mL of an aqueous 0.1 N sodium hydroxide solution was sent to the 1-mL column where 1 mg of the peptide was immobilized. Thereafter, washing with PBS was performed. This cycle was repeated 30 times for the 1,1-dichloroacetone-crosslinked cyclic peptide, and was repeated 10 times for the 1,1-dichloropinacolin-crosslinked cyclic peptide. DBC measurement was performed at a flow rate of 1 mL/min at the 1st to 5th and 10th times of the cycles, and further performed at the 20th and 30th times of the cycles with respect to the 1,1-dichloroacetone-crosslinked cyclic peptide, and thus alkali resistance was evaluated. The variation in DBC was determined based on the measurement results under the assumption that DBC immediately after column production was 100% according to Table 2.
# Five mL of a 0.1 M sodium hydroxide solution was sent to the produced 1-mL column where the amount of immobilization of a peptide was 1 mg, and thereafter washing with 5 mL of PBS was performed. These operations were defined as one cycle and treatment of washing with aqueous NaOH solution/washing with PBS was performed 1 to 30 times, and thereafter DBC measurement was performed at a flow rate of 1 mL/min at the intended number of times (1, 2, 3, 4, 5, 10, 20, 30 times).
# human IgG1 = human IgG1 (Homo sapiens, UniProt P01857); assay: SPR (BIAcore T200) measurement of binding affinity of crosslinked cyclic peptide to immobilized IgG
# Chain of human IgG1 (P01857 1-328 limits assumed): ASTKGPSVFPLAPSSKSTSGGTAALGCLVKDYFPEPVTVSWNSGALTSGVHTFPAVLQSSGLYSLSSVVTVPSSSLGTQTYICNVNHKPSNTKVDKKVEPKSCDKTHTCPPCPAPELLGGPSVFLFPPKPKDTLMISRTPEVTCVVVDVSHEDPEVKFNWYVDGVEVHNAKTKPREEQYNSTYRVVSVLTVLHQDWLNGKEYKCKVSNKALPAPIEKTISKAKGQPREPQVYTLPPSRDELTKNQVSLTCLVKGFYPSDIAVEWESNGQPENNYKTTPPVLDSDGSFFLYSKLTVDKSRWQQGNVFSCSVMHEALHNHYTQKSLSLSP
# Procedure: The affinity analysis was performed by the following method. First, a CM5 sensor chip was installed on BIAcoreT200 (GE healthcare), and 0.4 M 1-ethyl-3-(3-dimethylaminopropyl)carbodiimide (EDC) and a 0.1 M sulfo-N-hydroxysuccinimide (sulfo-NHS) solution mixed in equivalent amounts were injected to the sensor chip at a flow rate of […], to thereby activate the sensor chip. Thereafter, IgG was immobilized onto the sensor chip under a condition of a pH of 5.5 (10 mM Na acetate). An HBS-EP buffer (10 mM HEPES, 150 mM NaCl, 0.005% Tween 20, 3 mM EDTA, pH 7.4) was used in measurement, and 15.625, 31.2, 62.5, 125, 250, and 500 nM of peptides were each injected at a flow rate of […] for 180 seconds, to thereby monitor binding reaction. When dissociation reaction was measured, only the buffer was injected for 600 seconds. The interaction parameter was analyzed with BIAevaluation T100 software.
# IgG-binding peptide derivatives compared and evaluated are illustrated in FIG. 1.
# [1] = molecular target: human serum-derived IgG (manufactured by Sigma-Aldrich Co. LLC); assay: peptide-immobilised column, human serum IgG, 10% breakthrough
# human IgG1 (human) [2] = assay: SPR, BIAcore T200, IgG immobilised on CM5 chip
# human IgG1 (human) [3] = assay: SPR, BIAcore T200, IgG immobilised on CM5 chip, peptide as analyte
# human IgG1 (human) [4] = assay: SPR, same affinity measurement as in Example 4
# [5] = 0.1 M phosphate buffer pH 7.0 containing 0.5 mg/mL TCEP
# [6] = in the presence of reducing agent TCEP
# [7] = number of washing times with 0.1 N NaOH: 1
molecule,measurement,setting,value
CCC(C)C(NC(=O)C(Cc1ccc(O)cc1)NC(=O)C(N)CS)C(=O)NC(CCC(N)=O)C(=O)NC(CC(N)=O)C(=O)NC(CS)C(=O)N1CCCC1C(=O)NC(CC(C)C)C(=O)NCC(N)=O (stereo not drawn) [oxytocin-RD],change of HPLC peak after addition of α-chymotrypsin,α-chymotrypsin; [5],any peak disappeared after only 10 minutes
same,resistance to protease (FIG. 10),α-chymotrypsin; [6],extremely low
"CCC(C)C1NC(=O)C(Cc2ccc(O)cc2)NC(=O)C(N)CSSCC(C(=O)N2CCCC2C(=O)NC(CC(C)C)C(=O)NCC(N)=O)NC(=O)C(CC(N)=O)NC(=O)C(CCC(N)=O)NC1=O (stereo not drawn) [oxytocin-OX, Cys-Tyr-Ile-Gln-Asn-Cys-Pro-Leu-Gly-NH2]",change of HPLC peak after addition of α-chymotrypsin,"α-chymotrypsin; 0.1 M phosphate buffer pH 7.0, no TCEP, 15 minutes to 2 hours",no change of any peak was observed
same,resistance to protease (FIG. 10),α-chymotrypsin; no TCEP,high protease resistance
CC(C)C[C@@H]1NC(=O)[C@H](CCC(=O)O)NC(=O)CNC(=O)[C@H](CCCNC(=N)N)NC(=O)[C@H](Cc2c[nH]cn2)NC(=O)[C@H](Cc2ccc(O)cc2)NC(=O)[C@H](C)NC(=O)[C@@H](NC(=O)[C@H](CC(=O)O)NC(=O)[C@@H]2CCCN2C(=O)CNC(=O)[C@H](CO)NC(=O)CNC(=O)CNC(=O)[C@H](CO)NC(=O)CN)CSSC[C@@H](C(=O)N[C@H](C(=O)N[C@@H](Cc2ccccc2)C(=O)N[C@@H](Cc2c[nH]cn2)C(=O)O)[C@@H](C)O)NC(=O)[C@H](Cc2c[nH]c3ccccc23)NC(=O)[C@H](C(C)C)NC1=O [IgG-BP-LongGS Original] (H-GSGGSGPDCAYHRGELVWCTFH-OH; disulfide 9-19; N-terminus and C-terminus assumed),change in amount of binding of the antibody to the column by alkali washing (FIG. 2),"human serum-derived IgG; 0.1 M NaOH washing/PBS washing, 1 to 30 cycles",reduced by alkali washing
same,"value of DBC, by itself, of peptide-immobilized column","human serum-derived IgG; before repeated alkali washing, 1 mL/min",17.24 mg/mL
same,initial value of DBC of peptide column,"human serum-derived IgG; initial value, 1 mg peptide on 1-mL column, 1 mL/min",17.24 mg/mL-column
same,Variation (%) in dynamic binding capacity,human serum-derived IgG; [7],100.0%
same,Variation (%) in maximum binding capacity,human serum-derived IgG; [7],100.0%
same,Maximum binding capacity,"human serum-derived IgG; number of washing times with 0.1 N NaOH: 1, 1 mg peptide on 1-mL column",12.37 mg
same,Dynamic binding capacity,"human serum-derived IgG; number of washing times with 0.1 N NaOH: 1, 1 mL/min",17.24 mg/mL
same,Variation (%) in maximum binding capacity,human serum-derived IgG; number of washing times with 0.1 N NaOH: 5,49.2%
same,Maximum binding capacity,"human serum-derived IgG; number of washing times with 0.1 N NaOH: 5, 1 mg peptide on 1-mL column",6.09 mg
same,Dynamic binding capacity,"human serum-derived IgG; number of washing times with 0.1 N NaOH: 5, 1 mL/min",8.74 mg/mL
same,Variation (%) in dynamic binding capacity,"human serum-derived IgG; number of washing times with 0.1 N NaOH: 5, listed as IgG-BP-LGS",50.7%
same,Variation (%) in dynamic binding capacity,"human serum-derived IgG; number of washing times with 0.1 N NaOH: 5, listed as original IgG-binding peptide-immobilized column having a disulfide bond",≤ 50%
same,kd,"human IgG1; SPR, IgG immobilized on CM5 chip, HBS-EP pH 7.4",0.019
same,ka,"human IgG1; SPR, IgG immobilized on CM5 chip, HBS-EP pH 7.4, in M-1 s-1 (unit assumed)",2.37E+06
C#CCON=C(C)C1SC[C@H](NC(=O)[C@H](CC(=O)O)NC(=O)[C@@H]2CCCN2C(=O)CNC(=O)[C@H](CO)NC(=O)CNC(=O)CNC(=O)[C@H](CO)NC(=O)CN)C(=O)N[C@@H](C)C(=O)N[C@@H](Cc2ccc(O)cc2)C(=O)N[C@@H](Cc2c[nH]cn2)C(=O)N[C@@H](CCCNC(=N)N)C(=O)NCC(=O)N[C@@H](CCC(=O)O)C(=O)N[C@@H](CC(C)C)C(=O)N[C@@H](C(C)C)C(=O)N[C@@H](Cc2c[nH]c3ccccc23)C(=O)N[C@H](C(=O)N[C@H](C(=O)N[C@@H](Cc2ccccc2)C(=O)N[C@@H](Cc2c[nH]cn2)C(N)=O)[C@@H](C)O)CS1 (stereo partly drawn) (H-GSGGSGPDCAYHRGELVWCTFH-NH2; linker 9-19 via X4; C-terminus assumed),reduction of affinity as compared with the original peptide,human IgG1; Kd relative to original disulfide IgG-binding peptide,about 42 fold
same,Kd,"human IgG1; SPR, human IgG1",334 nM
CCC(C)C1NC(=O)C(Cc2ccc(O)cc2)NC(=O)C(N)CSC(C(=O)c2ccccc2)SCC(C(=O)N2CCCC2C(=O)NC(CC(C)C)C(=O)NCC(N)=O)NC(=O)C(CC(N)=O)NC(=O)C(CCC(N)=O)NC1=O (stereo not drawn) [oxytocin-DP],change of HPLC peak after addition of α-chymotrypsin,α-chymotrypsin; [5],no decrease was observed
same,resistance to protease (FIG. 10),α-chymotrypsin; [6],high resistance
CCC(C)C1NC(=O)C(Cc2ccc(O)cc2)NC(=O)C(N)CS/C(=C/c2ccccc2)SCC(C(=O)N2CCCC2C(=O)NC(CC(C)C)C(=O)NCC(N)=O)NC(=O)C(CC(N)=O)NC(=O)C(CCC(N)=O)NC1=O (stereo not drawn) [oxytocin-DP-RDH],change of HPLC peak after addition of α-chymotrypsin,α-chymotrypsin; [5],no decrease was observed
same,resistance to protease (FIG. 10),α-chymotrypsin; [6],high resistance
B1,initial value of DBC,[1],2.3 mg/mL-column
same,fold reduction of affinity against the original peptide,human IgG1 (human) [2],500 fold
same,Kd,human IgG1 (human) [3],4900 nM
B2,Kd,human IgG1 (human) [4],334 nM
same,fold reduction of affinity against the original peptide,human IgG1 (human) [4],42 fold
B3,Kd,human IgG1 (human) [3],6.4 nM
